Results reported in US20140248361A1, “HERBAL EXTRACT COMPOSITION AND A PROCESS THEREOF” (PRASAN SOLUTIONS (INDIA) PVT LTD, priority 2012, published 2014).

Tests used:
[1] = Effect of particle size on antioxidant activity (Rancimat induction time) in palm oil; conditions: 200 ppm in palm oil; Rancimat 120° C.
Procedure: (§2) Effect of particle size analysis on antioxidant activity is analysed with the help of Rancimat (Metrohm 743) which gives oxidative stability index based on the induction time (h). Rancimat analysis is carried out at two different temperature in order to set relationship between induction time and temperature of the studies.
(§3) In this, we have analyzed the particle size of samples with the help of Particle Size Analyzer (Microtrac, S3500) and its antioxidant activity with the help of Rancimat (Metrohm 743).

[2] = Oil stability index (Rancimat) of palm oil; conditions: 200 ppm
Procedure: (§4) As used herein, ‘Oil Stability Index (OSI)’ is an American Oil Chemists Society (AOCS) approved method that determines the relative resistance of fat and oil samples to oxidation, which is defined by the following equation—
(§5) The oil stability index is determined using the Metrohm's Rancimat (Metrohm 743 Rancimat).
4.0 g of palm oil is weighed into the reaction vessel. The reaction vessel filled with oil is placed in a heating block. The temperature of the block is maintained at 100° C., 120° C. and 140° C., respectively. The oil is heated at the said temperatures, followed by passing air at a flow rate of 20 L/h. Flowing of air through the oil produces peroxides during primary oxidation and organic acids having low molecular weight, aldehydes and ketones with typical rancid odor during the secondary oxidation phase. These compounds are conveyed by the air flow into measurement vessel containing distilled water where conductivity is being checked continuously by sensor.

[3] = Oil stability index (Rancimat) of sunflower oil; conditions: 200 ppm
Procedure: as §4, §5
4.0 g of sunflower oil is weighed into the reaction vessel. The reaction vessel filled with oil is placed in a heating block. The temperature of the block is maintained at 80° C., 100° C. and 120° C., respectively. The oil is heated at the said temperatures, followed by passing air at a flow rate of 20 L/h. Flowing of air through the oil produces peroxides during primary oxidation and organic acids having low molecular weight, aldehydes and ketones with typical rancid odor during the secondary oxidation phase. These compounds are conveyed by the air flow into measurement vessel containing distilled water where conductivity is being checked continuously by sensor.

[4] = Estimation of shelf life of palm oil (Rancimat temperature extrapolation); conditions: 200 ppm
Procedure: (§6) This is an aid for estimating the shelf life of oils and fats. The extrapolation makes use of the relationship between the measured induction time and the temperature given by van't Hoff's law. Several measurements are made at different temperatures and then extrapolated to the storage temperature. The values so obtained allow estimation of the storage stability of the oil or fat containing PRESOL.
(§7) The shelf life is calculated using Rancimat shelf life calculator.

[5] = Para-anisidine value of palm oil on storage
Procedure: (§8) The shelf life of oil is studied by carrying out chemical analysis, which include studying peroxide value (represents extent of primary oxidation), Para-anisidine value (represents extent of secondary oxidation) and totox value (reflects total oxidation of oil). These parameters are determined for 1 kg of untreated oil and treated oil at every 15 days interval for samples stored at ambient temperature and at every 7 days interval for samples stored at 50° C. The treated oil being, the oil upon addition of 200 ppm of TBHQ (sample-A), 200 ppm of BHA (sample-B), 200 ppm and 500 ppm of pulverized green tea extract with 90% polyphenol (sample-C), 200 ppm and 500 ppm of rosemary extract (sample-D), 200 ppm and 500 ppm of green tea extract after cryogenic grinding (sample-E), 200 ppm and 500 ppm of crude green tea extract (sample-F) and PRESOL at 200 ppm and 500 ppm. The untreated oil is the control sample without any antioxidant.
(§9) The threshold limit for per oxide value under which oil can be used for safe consumption is 10 meq of O2/Kg oil. Similarly, the threshold limit of para-anisidine value and Totox value is 10 and 30, respectively.

Shelf life of canola oil = conditions: 200 ppm
Procedure: D. Determination of Shelf Life of Canola Oil in the Presence of PRESOL • Shelf life of canola oil is analyzed upon adding 200 ppm of TBHQ (sample-A), BHA (sample-B), green tea extract with 90% polyphenol (sample-C), rosemary extract (sample-D), green tea extract after cryogenic grinding (sample-E), and PRESOL, respectively to canola oil.

[6] = Frying cycle analysis of sunflower oil (total polar compounds); conditions: for Total Polar compounds of sunflower oil: 200 ppm
Procedure: (§1) Palm oil and sunflower oil with antioxidants added to it are obtained from a local refinery. Frying studies are carried out with control oil and by adding TBHQ (Sample A), BHA (Sample B), GT Pulverized (Sample C), ROS (Sample D), GT Cryo grinded (Sample E), GT Crude Extract (Sample F) and PRESOL, respectively to the oils. Experiments are carried out a concentration of 200 ppm and 500 ppm. Fresh potatoes of less reduced sugar content variety are used throughout the experiment which is purchased form a local supermarket. Oil samples are withdrawn from the fryer at the end of every day and stored at −4° C. until it is tested for quality parameters viz, total polar compounds. Polar compounds present in oil and fats are measured by column chromatography using standard method, ES ISO 8420:2012.

[7] = Frying cycle analysis of palm oil (total polar compounds); conditions: palm oil
Procedure: as §1

[8] = Peroxide value of palm oil on storage
Procedure: as §8, §9

[9] = Estimation of shelf life of sunflower oil (Rancimat temperature extrapolation); conditions: 200 ppm
Procedure: as §6, §7

[10] = Oil stability index (Rancimat) of apricot oil; conditions: 200 ppm; for Induction Time at 200 ppm: in h
Procedure: as §4, §5
4.0 g of apricot oil is weighed into the reaction vessel. The reaction vessel filled with oil is placed in a heating block. The temperature of the block is maintained at 100° C., 120° C. and 140° C., respectively. The oil is heated at the said temperatures, followed by passing air at a flow rate of 20 L/h. Flowing of air through the oil produces peroxides during primary oxidation and organic acids having low molecular weight, aldehydes and ketones with typical rancid odor during the secondary oxidation phase. These compounds are conveyed by the air flow into measurement vessel containing distilled water where conductivity is being checked continuously by sensor.
The above experiment is repeated by adding 200 ppm of BHA (sample-B), 200 ppm of BHT (sample-B1), 500 ppm of alpha tocopherol (sample-B2) and PRESOL at 200 ppm, 500 ppm and 1000 ppm, respectively to apricot oil.

[11] = Oil stability index (Rancimat) of almond oil; conditions: 200 ppm; for Induction Time: in h
Procedure: as §5
4.0 g of almond oil is weighed into the reaction vessel. The reaction vessel filled with oil is placed in a heating block. The temperature of the block is maintained at 100° C., 120° C. and 140° C., respectively. The oil is heated at the said temperatures, followed by passing air at a flow rate of 20 L/h. […] These compounds are conveyed by the air flow into measurement vessel containing distilled water where conductivity is being checked continuously by sensor.
The above experiment is repeated by adding 200 ppm of BHA (sample-B), 200 ppm of BHT (sample-B1), 500 ppm of alpha tocopherol (sample-B2) and PRESOL at 200 ppm, 500 ppm and 1000 ppm, respectively to almond oil. From the above experiment, oxidative stability index of untreated oil (control) and treated oil is calculated and the below table illustrates the induction time and the obtained oxidative stability.

[12] = Totox value of palm oil on storage; conditions: for days after which Totox value crosses threshold limit: threshold 30
Procedure: as §8, §9

[13] = Effect of particle size on antioxidant activity (Rancimat induction time) in sunflower oil; conditions: 200 ppm in sunflower oil; Rancimat 100° C.
Procedure: as §2, §3

[14] = ambient temperature, day 0, 200 ppm
[15] = ambient temperature, day 15, 200 ppm
[16] = ambient temperature, day 30, 200 ppm
[17] = ambient temperature, day 45, 200 ppm
[18] = ambient temperature, day 60, 200 ppm
[19] = ambient temperature, day 75, 200 ppm
[20] = ambient temperature, day 90, 200 ppm
[21] = ambient temperature, day 105, 200 ppm
[22] = ambient temperature, day 120, 200 ppm
[23] = ambient temperature, day 135, 200 ppm
[24] = ambient temperature, day 150, 200 ppm
[25] = ambient temperature, day 165, 200 ppm
[26] = ambient temperature, day 180, 200 ppm

## COc1ccc(O)c(C(C)(C)C)c1 [Sample B, butylated hydroxyanisole]
[1]
  Induction Period (h) of PO at 120° C.: 9.88 h
[2]; 100° C.
  Induction Time: 43.33 h
  Oxidative Stability Index (OSI): 1.04
[2]; 120° C.
  Induction Time: 9.88 h
  Oxidative Stability Index (OSI): 1.02
[2]; 140° C.
  Induction Time: 2.51 h
  Oxidative Stability Index (OSI): 1.02
[3]; 80° C.
  Induction Time: 50.39 h
  Oxidative Stability Index (OSI): 1.38
[3]; 100° C.
  Induction Time: 13.33 h
  Oxidative Stability Index (OSI): 1.43
[3]; 120° C.
  Induction Time: 2.64 h
  Oxidative Stability Index (OSI): 1.12
[4]
  Shelf Life (days) at 30° C.: 260.9 days
[5]; 50° C., day 0, 200 ppm
  Para-anisidine value: 2.69
[5]; 50° C., day 7, 200 ppm
  Para-anisidine value: 3.186
[5]; 50° C., day 15, 200 ppm
  Para-anisidine value: 4.011
[5]; 50° C., day 22, 200 ppm
  Para-anisidine value: 4.204
[5]; 50° C., day 30, 200 ppm
  Para-anisidine value: 5.542
[5]; 50° C., day 37, 200 ppm
  Para-anisidine value: 5.617
[5]; 50° C., day 45, 200 ppm
  Para-anisidine value: 5.794
[5]; 50° C., day 52, 200 ppm
  Para-anisidine value: 5.827
[5]; 50° C., day 60, 200 ppm
  Para-anisidine value: 6.165
[5]; 50° C., day 67, 200 ppm
  Para-anisidine value: 6.22
[5]; 50° C., day 75, 200 ppm
  Para-anisidine value: 6.269
[5]; 50° C., day 82, 200 ppm
  Para-anisidine value: 6.503
[5]; 50° C., day 90, 200 ppm
  Para-anisidine value: 6.657
[5]; [14]
  Para-anisidine value: 2.566
[5]; [15]
  Para-anisidine value: 2.602
[5]; [16]
  Para-anisidine value: 3.18
[5]; [17]
  Para-anisidine value: 2.899
[5]; [18]
  Para-anisidine value: 2.759
[5]; [19]
  Para-anisidine value: 2.952
[5]; [20]
  Para-anisidine value: 3.113
[5]; [21]
  Para-anisidine value: 3.455
[5]; [22]
  Para-anisidine value: 3.499
[5]; [23]
  Para-anisidine value: 3.593
[5]; [24]
  Para-anisidine value: 3.759
[5]; [25]
  Para-anisidine value: 4.169
[5]; [26]
  Para-anisidine value: 4.493
Shelf life of canola oil
  Shelf Life (No. Of Days): 37 days
[6]; frying cycle 0
  Total Polar compounds of sunflower oil: 3.515
[6]; frying cycle 8
  Total Polar compounds of sunflower oil: 6.958
[6]; frying cycle 16
  Total Polar compounds of sunflower oil: 14.124
[6]; frying cycle 24
  Total Polar compounds of sunflower oil: 20.105
[6]; frying cycle 32
  Total Polar compounds of sunflower oil: 26.085
[6]; frying cycle 40
  Total Polar compounds of sunflower oil: 31.692
[6]; sunflower oil
  frying cycle after which threshold limit for total polar compounds is crossed: 40 cycle
[7]
  frying cycle after which threshold limit for total polar compounds is crossed: 40 cycle
[8]; 50° C., day 0, 200 ppm
  Peroxide value: 0.482
[8]; 50° C., day 7, 200 ppm
  Peroxide value: 4.735
[8]; 50° C., day 15, 200 ppm
  Peroxide value: 9.973
[8]; 50° C., day 22, 200 ppm
  Peroxide value: 13.062
[8]; 50° C., day 30, 200 ppm
  Peroxide value: 16.45
[8]; 50° C., day 37, 200 ppm
  Peroxide value: 35.595
[8]; 50° C., day 45, 200 ppm
  Peroxide value: 60.884
[8]; 50° C., day 52, 200 ppm
  Peroxide value: 51.15
[8]; 50° C., day 60, 200 ppm
  Peroxide value: 42.269
[8]; 50° C., day 67, 200 ppm
  Peroxide value: 34.974
[8]; 50° C., day 75, 200 ppm
  Peroxide value: 25.576
[8]; 50° C., day 82, 200 ppm
  Peroxide value: 11.31
[8]; 50° C., day 90, 200 ppm
  Peroxide value: 15.231
[8]; [14]
  Peroxide value: 0.465
[8]; [15]
  Peroxide value: 0.868
[8]; [16]
  Peroxide value: 1.691
[8]; [17]
  Peroxide value: 2.684
[8]; [18]
  Peroxide value: 4.034
[8]; [19]
  Peroxide value: 4.748
[8]; [20]
  Peroxide value: 5.034
[8]; [21]
  Peroxide value: 5.316
[8]; [22]
  Peroxide value: 6.307
[8]; [23]
  Peroxide value: 7.887
[8]; [24]
  Peroxide value: 8.617
[8]; [25]
  Peroxide value: 11.307
[8]; [26]
  Peroxide value: 12.75
[8]; ambient temperature, threshold 10 meq of O2/Kg oil
  days after which peroxide value crosses threshold limit: 165 days
[9]
  Shelf Life (days) at 30° C.: 87.2 days
[10]; 100° C.
  Oxidative Stability Index (OSI): 1.08
  Induction Time at 200 ppm: 29.16
[10]; 120° C.
  Oxidative Stability Index (OSI): 1.13
  Induction Time at 200 ppm: 6.66
[10]; 140° C.
  Oxidative Stability Index (OSI): 1.06
  Induction Time at 200 ppm: 1.57
[11]; 100° C.
  Oxidative Stability Index (OSI): 1.14
  Induction Time: 25.14
[11]; 120° C.
  Oxidative Stability Index (OSI): 1.21
  Induction Time: 6.11
[11]; 140° C.
  Oxidative Stability Index (OSI): 1.11
  Induction Time: 1.52
[12]; 50° C.
  days after which Totox value crosses threshold limit: 180 days
[12]; [14]
  Totox value: 3.497
[12]; [15]
  Totox value: 4.338
[12]; [16]
  Totox value: 6.561
[12]; [17]
  Totox value: 8.268
[12]; [18]
  Totox value: 10.827
[12]; [19]
  Totox value: 12.449
[12]; [20]
  Totox value: 13.181
[12]; [21]
  Totox value: 14.088
[12]; [22]
  Totox value: 16.114
[12]; [23]
  Totox value: 19.368
[12]; [24]
  Totox value: 20.994
[12]; [25]
  Totox value: 26.783
[12]; [26]
  Totox value: 29.993
[12]; ambient temperature
  days after which Totox value crosses threshold limit: 180 days
[13]
  Induction Period (h) of SFO 100° C.: 13.33 h
